Where “and” joins values, the source holds several entries; their conditions need not be identical. Identical values can stand only once. Inconclusive results and toxic doses are left out. Rule as the data show it: active = T/C of 150% or more; inactive = T/C below 125%.
System: L1210 leukemia ip in BDF1 mice, survival T/C
Experiment: NCI In Vivo Anticancer Drug Screen. Data for tumor model L1210 Leukemia (intraperitoneal) in B6D2F1 (BDF1) mice
Conditions: endpoint: mean survival time, higher = longer survival
Summary of the method: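 Tumor was transplanted into mice, which were then dosed with test compound or vehicle alone. Survival was recorded for each group, and the treated figure was expressed relative to the control figure.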

[1] = dose: 100.0 mg/kg/injection, schedule: Q01DX009 (ip), vehicle: saline with Tween-80
[2] = dose: 200.0 mg/kg/injection, schedule: Q01DX009 (ip), vehicle: saline with Tween-80
[3] = dose: 400.0 mg/kg/injection, schedule: Q01DX009 (ip), vehicle: saline with Tween-80
[4] = dose: 100.0 mg/kg/injection, schedule: Q04DX003 (ip), vehicle: Klucel (hydroxypropylcellulose) (HPC)
[5] = dose: 100.0 mg/kg/injection, schedule: Q04DX003 (ip), vehicle: saline with Tween-80
[6] = dose: 100.0 mg/kg/injection, schedule: Q01DX009 (ip), vehicle: saline
[7] = dose: 200.0 mg/kg/injection, schedule: Q01DX009 (ip), vehicle: saline
[8] = dose: 200.0 mg/kg/injection, schedule: Q04DX003 (ip), vehicle: saline with Tween-80
[9] = dose: 400.0 mg/kg/injection, schedule: Q04DX003 (ip), vehicle: saline with Tween-80
[10] = dose: 100.0 mg/kg/injection, schedule: Q04DX002 (ip), vehicle: saline with Tween-80
[11] = dose: 200.0 mg/kg/injection, schedule: Q04DX002 (ip), vehicle: saline with Tween-80
[12] = dose: 100.0 mg/kg/injection, schedule: Q01DX001 (ip), vehicle: carboxymethylcellulose (CMC)
[13] = dose: 200.0 mg/kg/injection, schedule: Q01DX001 (ip), vehicle: carboxymethylcellulose (CMC)
[14] = dose: 400.0 mg/kg/injection, schedule: Q01DX001 (ip), vehicle: carboxymethylcellulose (CMC)
[15] = dose: 100.0 mg/kg/injection, schedule: Q01DX009 (ip), vehicle: Klucel (hydroxypropylcellulose) (HPC)
[16] = dose: 200.0 mg/kg/injection, schedule: Q04DX003 (ip), vehicle: Klucel (hydroxypropylcellulose) (HPC)
[17] = dose: 400.0 mg/kg/injection, schedule: Q04DX003 (ip), vehicle: Klucel (hydroxypropylcellulose) (HPC)
[18] = dose: 200.0 mg/kg/injection, schedule: Q01DX009 (ip), vehicle: Klucel (hydroxypropylcellulose) (HPC)
[19] = dose: 400.0 mg/kg/injection, schedule: Q01DX009 (ip), vehicle: saline

Measured: T/C

CCCCC(/C=N/N=C(N)N)=N\N=C(N)N
inactive: dose: 15.0 mg/kg/injection, schedule: Q01DX Z (ip), vehicle: saline 95 % of control | dose: 15.0 mg/kg/injection, schedule: Q01DX Z (oral), vehicle: saline 98 % of control | dose: 30.0 mg/kg/injection, schedule: Q01DX Z (ip), vehicle: saline 103 % of control | dose: 30.0 mg/kg/injection, schedule: Q01DX Z (oral), vehicle: saline 91 % of control | dose: 60.0 mg/kg/injection, schedule: Q01DX Z (oral), vehicle: saline 91 % of control | dose: 120.0 mg/kg/injection, schedule: Q01DX Z (oral), vehicle: saline 94 % of control

C[C@]1(O)CC[C@H]2[C@@H]3CC[C@@H]4C[C@H](O)CC[C@]4(C)[C@@]3(F)[C@@H](O)C[C@@]21C
inactive: dose: 50.0 mg/kg/injection, schedule: Q01DX Z (sc), vehicle: steriod suspending solution 107 % of control | dose: 250.0 mg/kg/injection, schedule: Q01DX Z (sc), vehicle: steriod suspending solution 101 % of control | dose: 500.0 mg/kg/injection, schedule: Q01DX Z (sc), vehicle: steriod suspending solution 95 % of control

CNC(=O)Oc1cccc(NC(=O)OC2CCCCC2)c1
inactive: [1] 89 % of control | [2] 97 % of control | [3] 89 % of control

Cc1cc(C)c(N)c(Br)c1
inactive: dose: 25.0 mg/kg/injection, schedule: Q01DX009 (ip), vehicle: saline with Tween-80 88 % of control | dose: 25.0 mg/kg/injection, schedule: Q04DX003 (ip), vehicle: Klucel (hydroxypropylcellulose) (HPC) 95 % of control | dose: 50.0 mg/kg/injection, schedule: Q01DX009 (ip), vehicle: saline with Tween-80 87 % of control | dose: 50.0 mg/kg/injection, schedule: Q04DX003 (ip), vehicle: Klucel (hydroxypropylcellulose) (HPC) 97 % of control | dose: 100.0 mg/kg/injection, schedule: Q01DX001 (ip), vehicle: Klucel (hydroxypropylcellulose) (HPC) 95 % of control | [4] 93 % of control and 90 % of control | [5] 91 % of control | dose: 200.0 mg/kg/injection, schedule: Q01DX001 (ip), vehicle: Klucel (hydroxypropylcellulose) (HPC) 97 % of control

CN(/N=C/C(O)C(O)C(O)CO)c1ccccc1 (stereo not drawn)
inactive: [6] 95 % of control | [5] 102 % of control and 98 % of control | [7] 90 % of control | [8] 93 % of control and 96 % of control | [9] 94 % of control and 96 % of control

Cc1ccc(S(=O)(=O)N/N=C/C=C/c2ccccc2)cc1
inactive: [10] 103 % of control | [11] 93 % of control | dose: 400.0 mg/kg/injection, schedule: Q04DX002 (ip), vehicle: saline with Tween-80 93 % of control

C=COCCN1C(=O)c2ccccc2C1=O
inactive: dose: 100.0 mg/kg/injection, schedule: Q04DX002 (ip), vehicle: Klucel (hydroxypropylcellulose) (HPC) 102 % of control | dose: 200.0 mg/kg/injection, schedule: Q04DX002 (ip), vehicle: Klucel (hydroxypropylcellulose) (HPC) 120 % of control | dose: 400.0 mg/kg/injection, schedule: Q04DX002 (ip), vehicle: Klucel (hydroxypropylcellulose) (HPC) 106 % of control

CCOP(=O)(Nc1c(Cl)cc2c(c1Cl)Cc1cc([N+](=O)[O-])ccc1-2)OCC
inactive: dose: 50.0 mg/kg/injection, schedule: Q01DX001 (ip), vehicle: carboxymethylcellulose (CMC) 103 % of control | [12] 100 % of control | [13] 100 % of control | [14] 103 % of control

C[NH-].C[NH-].C[NH-].C[NH-].[Cl][Rh][Cl]
inactive: [15] 97 % of control | [4] 86 % of control | [16] 94 % of control | [17] 92 % of control

O=C(Nc1ccc(Cl)cc1)c1cc([N+](=O)[O-])ccc1O
inactive: dose: 30.5 mg/kg/injection, schedule: Q02DX010 (ip), vehicle: carboxymethylcellulose (CMC) 95 % of control | dose: 61.0 mg/kg/injection, schedule: Q02DX010 (ip), vehicle: carboxymethylcellulose (CMC) 101 % of control | dose: 122.0 mg/kg/injection, schedule: Q02DX010 (ip), vehicle: carboxymethylcellulose (CMC) 99 % of control | dose: 244.0 mg/kg/injection, schedule: Q02DX010 (ip), vehicle: carboxymethylcellulose (CMC) 94 % of control

CC(C)(CC(=O)c1ccccc1)CC(=O)c1ccccc1
inactive: dose: 100.0 mg/kg/injection, schedule: Q01DX001 (ip), vehicle: saline 109 % of control | dose: 200.0 mg/kg/injection, schedule: Q01DX001 (ip), vehicle: saline 116 % of control | dose: 400.0 mg/kg/injection, schedule: Q01DX001 (ip), vehicle: saline 98 % of control

CCOC(=O)C1=C(C)NC(=O)NC1c1ccc(N(CCCl)CCCl)cc1 (stereo not drawn)
inactive: [15] 93 % of control | [4] 97 % of control | [18] 112 % of control | [16] 90 % of control | dose: 400.0 mg/kg/injection, schedule: Q01DX009 (ip), vehicle: Klucel (hydroxypropylcellulose) (HPC) 104 % of control | [17] 101 % of control

CCC(=O)c1cc(OC)cc(OC)c1
inactive: [6] 105 % of control | [7] 105 % of control | [19] 112 % of control

O=C(c1ccccc1)c1ccccc1
inactive: dose: 50.0 mg/kg/injection, schedule: Q01DX009 (ip), vehicle: Klucel (hydroxypropylcellulose) (HPC) 96 % of control | dose: 75.0 mg/kg/injection, schedule: Q04DX003 (ip), vehicle: saline 100 % of control | [15] 101 % of control | dose: 150.0 mg/kg/injection, schedule: Q04DX003 (ip), vehicle: saline 100 % of control | [18] 97 % of control | dose: 300.0 mg/kg/injection, schedule: Q04DX003 (ip), vehicle: saline 104 % of control

COC(OC)c1[nH]c(=S)[nH]c(=O)c1Cc1cc(C)ccc1C
inactive: [6] 99 % of control | [7] 101 % of control | [19] 103 % of control

COc1ccc(NC(=O)CC(C)C(=O)O)cc1 (stereo not drawn)
inactive: [1] 102 % of control | [2] 90 % of control | [3] 104 % of control

S=P(c1ccccc1)(N1CC1)N1CC1
inactive: dose: 25.0 mg/kg/injection, schedule: Q04DX002 (ip), vehicle: saline with Tween-80 110 % of control | dose: 50.0 mg/kg/injection, schedule: Q01DX Z (ip), vehicle: saline 124 % of control | dose: 50.0 mg/kg/injection, schedule: Q04DX002 (ip), vehicle: saline with Tween-80 103 % of control | dose: 100.0 mg/kg/injection, schedule: Q01DX Z (ip), vehicle: saline 115 % of control | [10] 115 % of control and 116 % of control | [11] 92 % of control

CCCCCCCCCCCCCCCCCC[P+](CCCC)(CCCC)CCCC
inactive: dose: 0.75 mg/kg/injection, schedule: Q04DX002 (ip), vehicle: saline with Tween-80 110 % of control | dose: 1.5 mg/kg/injection, schedule: Q04DX002 (ip), vehicle: saline with Tween-80 90 % of control | dose: 3.0 mg/kg/injection, schedule: Q04DX002 (ip), vehicle: saline with Tween-80 100 % of control | dose: 3.12 mg/kg/injection, schedule: Q04DX002 (ip), vehicle: saline with Tween-80 87 % of control | dose: 6.25 mg/kg/injection, schedule: Q04DX002 (ip), vehicle: saline with Tween-80 94 % of control

c1nc(NCCc2cnc[nH]2)c2[nH]cnc2n1
inactive: [12] 95 % of control | [13] 90 % of control | [14] 97 % of control

COc1ccc([N+](=O)[O-])cc1NS(=O)(=O)c1ccc(C)cc1
inactive: dose: 50.0 mg/kg/injection, schedule: Q04DX003 (ip), vehicle: saline with Tween-80 95 % of control | [5] 94 % of control and 90 % of control | [8] 86 % of control and 92 % of control | [9] 92 % of control

CC(=O)NCC(C)OC(C)=O (stereo not drawn)
inactive: [6] 104 % of control | [7] 97 % of control | [19] 97 % of control
